Results taken from patent publication US20190134005A1 (BioMarin Pharmaceutical Inc., priority 2016, published 2019).
pIC50: −log10 of the molar value.

These compounds were tested against T1, human CGT (Homo sapiens, UniProt Q16880) (assay: Assay 1: CGT Enzymatic Assay (RapidFire/MS/MS, 0.01% Tween 80)). Conditions: not given.
T1 sequence (Q16880 21-541): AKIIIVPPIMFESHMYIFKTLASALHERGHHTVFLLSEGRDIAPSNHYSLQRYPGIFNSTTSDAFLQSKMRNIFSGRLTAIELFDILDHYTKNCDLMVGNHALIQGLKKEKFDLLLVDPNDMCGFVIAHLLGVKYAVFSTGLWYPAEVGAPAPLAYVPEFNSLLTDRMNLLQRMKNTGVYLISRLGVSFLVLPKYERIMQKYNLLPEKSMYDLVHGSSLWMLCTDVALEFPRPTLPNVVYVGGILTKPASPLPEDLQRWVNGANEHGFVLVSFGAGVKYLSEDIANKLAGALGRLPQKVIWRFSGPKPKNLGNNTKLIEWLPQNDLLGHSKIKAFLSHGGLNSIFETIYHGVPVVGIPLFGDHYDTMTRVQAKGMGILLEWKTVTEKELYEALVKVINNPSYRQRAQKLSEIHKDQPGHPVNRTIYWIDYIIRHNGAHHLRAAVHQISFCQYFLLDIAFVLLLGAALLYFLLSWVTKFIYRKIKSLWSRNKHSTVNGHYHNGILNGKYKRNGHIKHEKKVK
Type: biochemical

Row | SMILES | pIC50
1 | O=C1N(c2ccc(Br)cc2)C(=O)C(O)(c2cc3ccccc3[nH]2)N1c1ccc(Br)cc1 (centres unmarked) [Example 210, 1,3-bis(4-bromophenyl)-5-hydroxy-5-(1H-indol-2-yl)imidazolidine-2,4-dione] | 4.30 to 5.00

Same assay, conditions: Table 1, Compounds of Formula (I) and Formula (II); CGT enzymatic assay, C6-NBD-dihydro-galactosylceramide readout; read-out: IC50

Row | pIC50 | SMILES
2 | > 6.00 | N#Cc1ccc(N2C(=O)N(c3ccc(C#N)cc3)C(O)(c3cccc(OC(F)(F)F)c3)C23CCCC3)cc1 (centres unmarked) [Example 326, 4,4′-(4-hydroxy-2-oxo-4-(3-(trifluoromethoxy)phenyl)-1,3-diazaspiro[4.4]nonane-1,3-diyl)dibenzonitrile]
3 | > 6.00 | N#Cc1ccc(N2C(=O)N(c3ccccc3)C3(CCC3)C2(O)c2cccc(OC(F)(F)F)c2)cc1 (centres unmarked) [Example 335, 4-(8-hydroxy-6-oxo-5-phenyl-8-(3-(trifluoromethoxy)phenyl)-5,7-diazaspiro[3.4]octan-7-yl)benzonitrile]
4 | > 6.00 | N#Cc1ccc(N2C(=O)N(c3ccc(Cl)cc3)C3(COC3)C2(O)c2cccc(OC(F)(F)F)c2)cc1 (centres unmarked) [Compound 274, 4-(5-(4-chlorophenyl)-8-hydroxy-6-oxo-8-(3-(trifluoromethoxy)phenyl)-2-oxa-5,7-diazaspiro[3.4]octan-7-yl)benzonitrile]
5 | > 6.00 | Cc1ccc(N2C(=O)N(c3ccc(Cl)cc3)C(O)(c3cccc(C#N)c3)C2(C)C)cc1 (centres unmarked) [Example 317, 3-(3-(4-chlorophenyl)-4-hydroxy-5,5-dimethyl-2-oxo-1-(p-tolyl)imidazolidin-4-yl)benzonitrile]

Row | SMILES | pIC50
6 | CCC[C@]1(C)N(c2ccc(C#N)cc2)C(=O)N(c2ccc(C#N)cc2)C1(O)c1cccc(OC(F)(F)F)c1 (stereo partly drawn) [Example 320-2, 4,4′-((5S)-4-hydroxy-5-methyl-2-oxo-5-propyl-4-(3-(trifluoromethoxy)phenyl)imidazolidine-1,3-diyl)dibenzonitrile] | > 6.00

Same assay, conditions: Table 1, Compounds of Formula (I) and Formula (II); CGT enzymatic assay; read-out: IC50

Row | SMILES | pIC50
7 | C[C@H]1N(c2ccc(Cl)cc2)C(=O)N(c2ccc(Cl)cc2)C1(O)c1cccc(C(F)(F)F)c1 (stereo partly drawn) [Compound 77-2, (5R)-1,3-bis(4-chlorophenyl)-4-hydroxy-5-methyl-4-(3-(trifluoromethyl)phenyl)imidazolidin-2-one] | > 6.00
8 | CN(C)c1cccc(C2(O)CN(c3ccc(Br)cc3)C(=O)N2c2ccc(Br)cc2)c1 (centres unmarked) [Compound 125, 1,3-bis(4-bromophenyl)-4-(3-(dimethylamino)phenyl)-4-hydroxyimidazolidin-2-one] | < 4.30
9 | C[C@]1(c2ccccc2)N(c2ccc(Cl)cc2)C(=O)N(c2ccc(Cl)cc2)[C@@]1(O)c1ccccc1 [Compound 121-4, (4R,5R)-1,3-bis(4-chlorophenyl)-4-hydroxy-5-methyl-4,5-diphenylimidazolidin-2-one] | 5.00 to 6.00
10 | CCCC[C@@H]1N(c2ccc(Cl)cc2)C(=O)N(c2ccc(Cl)cc2)C1(O)c1cccc(C#N)c1 (stereo partly drawn) [Compound 116-1, 3-((5S)-5-butyl-1,3-bis(4-chlorophenyl)-4-hydroxy-2-oxoimidazolidin-4-yl)benzonitrile] | > 6.00
11 | CCC[C@H]1N(c2ccc(Br)cc2)C(=O)N(c2ccc(Br)cc2)C1(O)c1cccc(C(F)(F)F)c1 (stereo partly drawn) [Compound 100-2, (5R)-1,3-bis(4-bromophenyl)-4-hydroxy-5-propyl-4-(3-(trifluoromethyl)phenyl)imidazolidin-2-one] | > 6.00
12 | CCOc1cccc(C2(O)CN(c3ccc(Br)cc3)C(=O)N2c2ccc(Br)cc2)c1 (centres unmarked) [Compound 79, 1,3-bis(4-bromophenyl)-4-(3-ethoxyphenyl)-4-hydroxyimidazolidin-2-one] | 5.00 to 6.00
13 | CCC[C@H]1N(c2ccc(Cl)cc2)C(=O)N(c2ccc(Cl)cc2)C1(O)c1cccc(C)c1 (stereo partly drawn) [Compound 90-2, (5R)-1,3-bis(4-chlorophenyl)-4-hydroxy-5-propyl-4-(m-tolyl)imidazolidin-2-one] | > 6.00
14 | CC#Cc1cccc(C2(O)[C@H](C)N(c3ccc(Cl)cc3)C(=O)N2c2ccc(Cl)cc2)c1 (stereo partly drawn) [Compound 103-1, (5S)-1,3-bis(4-chlorophenyl)-4-hydroxy-5-methyl-4-(3-(prop-1-yn-1-yl)phenyl)imidazolidin-2-one] | > 6.00
15 | CCC1N(c2ccc(Cl)cc2)C(=O)N(c2ccc(Cl)cc2)C1(O)c1cccc(Cl)c1 (centres unmarked) [Compound 81, 4-(3-chlorophenyl)-1,3-bis(4-chlorophenyl)-5-ethyl-4-hydroxyimidazolidin-2-one] | > 6.00
16 | CCC1N(c2ccc(Cl)cc2)C(=O)N(c2ccc(Cl)cc2)C1(O)c1cccc(OC(F)F)c1 (centres unmarked) [Compound 118, 1,3-bis(4-chlorophenyl)-4-(3-(difluoromethoxy)phenyl)-5-ethyl-4-hydroxyimidazolidin-2-one] | > 6.00
17 | Cc1csc(C2(O)[C@H](C)N(c3ccc(Br)cc3)C(=O)N2c2ccc(Br)cc2)c1 (stereo partly drawn) [Compound 97-1, (5S)-1,3-bis(4-bromophenyl)-4-hydroxy-5-methyl-4-(4-methylthiophen-2-yl)imidazolidin-2-one] | 5.00 to 6.00
18 | CCC1N(c2ccc(Cl)cc2)C(=O)N(c2ccc(Cl)cc2)C1(O)c1cccc(OC(F)(F)F)c1 (centres unmarked) [Compound 82, 1,3-bis(4-chlorophenyl)-5-ethyl-4-hydroxy-4-(3-(trifluoromethoxy)phenyl)imidazolidin-2-one] | > 6.00
19 | CCC[C@H]1N(c2ccc(Br)cc2)C(=O)N(c2ccc(Br)cc2)C1(O)c1cccc(Cl)c1 (stereo partly drawn) [Compound 119-2, (5R)-1,3-bis(4-bromophenyl)-4-(3-chlorophenyl)-4-hydroxy-5-propylimidazolidin-2-one] | > 6.00
20 | C[C@]1(c2ccccc2)N(c2ccc(Cl)cc2)C(=O)N(c2ccc(Cl)cc2)[C@]1(O)c1ccccc1 [Compound 121-3, (4S,5R)-1,3-bis(4-chlorophenyl)-4-hydroxy-5-methyl-4,5-diphenylimidazolidin-2-one] | < 4.30

Next, values leading:

Row | pIC50 | SMILES
21 | > 6.00 | CC(C)c1c(-c2cccc(C#N)c2)n(-c2ccc(Cl)cc2)c(=O)n1-c1ccc(Cl)cc1 [Example 44, 3-(1,3-bis(4-chlorophenyl)-5-isopropyl-2-oxo-2,3-dihydro-1H-imidazol-4-yl)benzonitrile]
22 | 5.00 to 6.00 | C[C@H]1N(c2ccccc2)C(=O)N(c2ccccc2)C1(O)c1cccc(OC(F)(F)F)c1 (stereo partly drawn) [Example 230-2, (5R)-4-hydroxy-5-methyl-1,3-diphenyl-4-(3-(trifluoromethoxy)phenyl)imidazolidin-2-one]
23 | 4.00 to 4.30 | CCCCCCC1(O)C(=O)N(c2ccc(Br)cc2)C(=O)N1c1ccc(Br)cc1 (centres unmarked) [Example 157, 1,3-bis(4-bromophenyl)-5-hexyl-5-hydroxyimidazolidine-2,4-dione]
24 | < 4.30 | O=C1N(c2ccc(Br)cc2)C(=O)C(O)(c2nccs2)N1c1ccc(Br)cc1 (centres unmarked) [Example 201, 1,3-bis(4-bromophenyl)-5-hydroxy-5-(thiazol-2-yl)imidazolidine-2,4-dione]
25 | 4.00 to 4.30 | COc1ccc(C2(O)C(=O)N(c3ccc(Br)cc3)C(=O)N2c2ccc(Br)cc2)nc1 (centres unmarked) [Example 208, 1,3-bis(4-bromophenyl)-5-hydroxy-5-(5-methoxypyridin-2-yl)imidazolidine-2,4-dione]
26 | < 4.30 | O=C1N(c2ccc(Br)cc2)C(=O)C(O)(C(F)(F)F)N1c1ccc(Br)cc1 (centres unmarked) [Example 216, 1,3-bis(4-bromophenyl)-5-hydroxy-5-(trifluoromethyl)imidazolidine-2,4-dione]
27 | > 6.00 | CC1N(c2ccc(F)cc2)C(=O)N(c2ccc(F)cc2)C1(O)c1cccc(OC(F)(F)F)c1 (centres unmarked) [Compound 130, 1,3-bis(4-fluorophenyl)-4-hydroxy-5-methyl-4-(3-(trifluoromethoxy)phenyl)imidazolidin-2-one]
28 | 5.00 to 6.00 | O=C1N(c2ccc(Cl)cc2)CC(O)(c2ccccc2)N1c1ccc(Cl)cc1 (centres unmarked) [Example 12, 1,3-bis(4-chlorophenyl)-4-hydroxy-4-phenylimidazolidin-2-one]
29 | 4.30 to 5.00 | O=C1N(c2ccc(Cl)cc2)[C@@H](c2ccccc2)[C@@](O)(CO)N1c1ccc(Cl)cc1 [Example 218-2, (4R,5S)-1,3-bis(4-chlorophenyl)-4-hydroxy-4-(hydroxymethyl)-5-phenylimidazolidin-2-one]
30 | > 6.00 | Cc1cc(C)cc(C2(O)[C@H](C)N(c3ccc(Br)cc3)C(=O)N2c2ccc(Br)cc2)c1 (some centres unmarked) [Example 42-1]
31 | > 6.00 | O=C1N(c2ccc(Cl)cc2)C2(CCC2)C(O)(c2cccc(OC(F)F)c2)N1c1ccc(Cl)cc1 (centres unmarked) [Example 165, 5,7-bis(4-chlorophenyl)-8-(3-(difluoromethoxy)phenyl)-8-hydroxy-5,7-diazaspiro[3.4]octan-6-one]
32 | > 6.00 | Cc1cccc(C2(O)[C@H](C)N(c3ccc(Br)cc3)C(=O)N2c2ccc(Br)cc2)c1 (some centres unmarked) [Example 29-1]
33 | < 4.30 | COc1ccc(N2C(=O)N(c3ccc(OC)cc3)C(O)(c3ccccc3)C2=O)cc1 (centres unmarked) [Example 160, 5-hydroxy-1,3-bis(4-methoxyphenyl)-5-phenylimidazolidine-2,4-dione]
34 | 4.30 to 5.00 | Cc1cc(C)cc(C2(O)CN(c3ccc(Br)cc3)C(=O)N2c2ccc(Br)cc2)c1 (centres unmarked) [Example 33, 1,3-bis(4-bromophenyl)-4-(3,5-dimethylphenyl)-4-hydroxyimidazolidin-2-one]
35 | 4.30 to 5.00 | O=C1N(c2ccc(Br)cc2)C(=O)C(O)(C2CCOCC2)N1c1ccc(Br)cc1 (centres unmarked) [Example 207, 1,3-bis(4-bromophenyl)-5-hydroxy-5-(tetrahydro-2H-pyran-4-yl)imidazolidine-2,4-dione]
